Results taken from US20180353512A1, “COMBINATION THERAPIES FOR TREATING B-CELL MALIGNANCIES” (GILEAD SCIENCES, INC., priority 2015, published 2018).
Where two headings read alike, the source gives them in different places.

Legend:
Assay type in all cases: cell-based
Pfeiffer cells = assay: CellTiter-Glo cell viability assay, four days (Example 1A); settings: for EC50: Homo sapiens
Method: (§1) In vitro anti-proliferative activity of agents was assessed using CellTiter-Glo™ Assay (Promega), which quantifies cellular ATP level. Test compounds were dissolved in DMSO to prepare 10 mM stock solutions. […] For drug combination studies, a two or three fold horizontal serial dilution pattern was used for Compound B and combined with Idelalisib using a two, three, or four fold vertical serial dilution pattern. […] The final DMSO concentration in the test media was 0.2%. Each combination used replicates of four plates to generate sufficient data for evaluation of synergy scores. […] The assay growth medium for all lines was RPMI supplemented with 20% FBS and […] penicillin-streptomycin. Seeding density was optimized for growth rate over 96 hours for each cell line and was between 10,000-30,000 cells per well of 96 well plates. After four days incubation with agents at 37° C./5% CO2, the CellTiter-Glo™ assay was performed following the manufacturer's protocol. Relative luminescence units were quantified using a Biotek Synergy luminometer.
(§2) Data from a plate was excluded if either Z′<0.5 or the growth of the cell lines was less than one doubling in the four day assay period. Z′ was calculated using the formula: Z′=[1−((3(σstau+σDMSO))/(|μDMSO−μstau|)] where σstau and σDMSO are the standard deviation of the 100% inhibited staurosporine and 0% inhibited DMSO control wells, respectively. μDMSO and μstau are the mean of the […] control wells, respectively. The raw Cell Titer Glo signal was normalized according to the following formula: [(raw value)−(100% inhibited staurosporine control)]/[(DMSO control value)−(100% inhibited staurosporine control)].
(§3) EC50 was determined using GraphPad Prism or Dose Response software by fitting the data to a four parameters variable slope model. […] For combination studies, the EC50 at each test article concentration was determined from graphs of the EC50 of one compound at a fixed dose of second compound. The EC50 shift was calculated by taking the ratio of the EC50 of the single agent by the EC50 at the maximum dose of the second agent.
(§4) Synergy was analyzed using the MacSynergy II program, which calculates a theoretical additive value for the drug combination that is based on the values generated by each drug alone using the Bliss Independence mathematical model. The Bliss independence model assumes that each drug acts independently. The theoretical additive effect for each compound is calculated and then subtracted from the actual effect. Synergy is defined by greater than expected effects while antagonism is defined by less than expected effects. In this example, a synergy volume greater than 50 was considered significant. The EC50 values determined in drug combination studies represent a single experiment run in quadruplicate and therefore may differ slightly from the single agent EC50 values.

Ri-1 cells = assay: as above; settings: for EC50: Ri-1, Ri-1; for growth of cell line: single agent
Method: as §1, §2, §3, §4

Jeko-1 cells = assay: ATPLite anti-proliferation assay (GI) and synergy score, 120 h
Method: (§5) The endpoint readout of the anti-proliferation assay was based upon quantitation of ATP as an indicator of viable cells. Cells were thawed from a liquid nitrogen preserved state. Once cells had been expanded and divided at their expected doubling times, screening began. Cells were seeded in growth media in black 384-well tissue culture treated plates at 500 cells per well (except where noted in Analyzer). Cells were equilibrated in assay plates via centrifugation and placed in incubators attached to the Dosing Modules at 37° C. for twenty-four hours before treatment. […] These Tzero (T0) plates were read using ultra-sensitive luminescence on Envision Plate Readers. Treated assay plates were incubated with the compound for one hundred twenty hours. After one hundred twenty hours, plates were developed for endpoint analysis using ATPLite. All data points were collected via automated processes; quality controlled; and analyzed using Horizon CombinatoRx proprietary software. Assay plates were accepted if they pass the following quality control standards: relative luciferase values were consistent throughout the entire experiment, Z-factor scores were greater than 0.6, untreated/vehicle controls behaved consistently on the plate.
(§6) Horizon Discovery utilized Growth Inhibition (GI) as a measure of cell viability. The cell viability of vehicle was measured at the time of dosing (T0) and after one hundred twenty hours (T120). A GI reading of 0% represented no growth inhibition—cells treated with compound and T120 vehicle signals were matched. […] A GI 200% represents complete death of all cells in the culture well. Compounds reaching an activity plateau of GI 200% were considered cytotoxic. Horizon CombinatoRx calculates GI by applying the following test and equation: […]
(§7) To measure combination effects in excess of Loewe additivity, Horizon Discovery has devised a scalar measure to characterize the strength of synergistic interaction termed the Synergy Score. The Synergy Score was calculated as:
(§8) Synergy Score=log fx log fyΣmax(0,Idata)(Idata−ILoewe)
(§9) The fractional inhibition for each component agent and combination point in the matrix was calculated relative to the median of all vehicle-treated control wells. The Synergy Score equation integrated the experimentally-observed activity volume at each point in the matrix in excess of a model surface numerically derived from the activity of the component agents using the Loewe model for additivity. Additional terms in the Synergy Score equation (above) were used to normalize for various dilution factors used for individual agents and to allow for comparison of synergy scores across an entire experiment. The inclusion of positive inhibition gating or an Idata multiplier removed noise near the zero effect level, and biased results for synergistic interactions at that occur at high activity levels.
(§10) The cell viability of vehicle was measured at the time of dosing (T0) and after 120 h (T120). […] To measure combination effects, excess of Loewe additivity was used to characterize the strength of synergistic interaction, termed the synergy score. The assay and synergy score analysis were performed in accordance with the protocol set forth in Example 1B above.

Maver-1 cells = assay: as above
Method: as §5, §6, §7, §8, §9, §10

Z-138 cells = assay: as above
Method: as §5, §6, §7, §8, §9, §10

JVM-2 cells = assay: as above
Method: as §5, §6, §7, §8, §9, §10

Granta-519 cells = assay: as above
Method: as §5, §6, §7, §8, §9, §10

PF-1 cells = assay: as above
Method: as §5, §6, §7, §8, §9, §10

PF-2 cells = assay: as above
Method: as §5, §6, §7, §8, §9, §10

JMP-1 cells = assay: as above
Method: as §5, §6, §7, §8, §9, §10

Mino cells = assay: as above
Method: as §5, §6, §7, §8, §9, §10

JVM-13 cells = assay: as above
Method: as §5, §6, §7, §8, §9, §10

Rec-1 cells = assay: as above
Method: as §5, §6, §7, §8, §9, §10

[1] = Idelalisib 0 nM, read-out: EC50 of Compound B in Combination with Idelalisib
[2] = bound stated for three ABC-DLBCL cell lines, read-out: EC50, growth inhibition, single agent
[3] = Compound B 45 nM, read-out: EC50 of Idelalisib when Combined with Compound B

SMILES | EC50 (Ri-1 cells; [2]) [nM] | growth of cell line (Ri-1 cells; Ri-1) | Max. Effect (% GI) (Jeko-1 cells) | Max. Effect (% GI) (Maver-1 cells) | Max. Effect (% GI) (Z-138 cells) | Max. Effect (% GI) (JVM-2 cells) | Max. Effect (% GI) (Granta-519 cells) | Max. Effect (% GI) (PF-1 cells) | Max. Effect (% GI) (PF-2 cells) | Max. Effect (% GI) (JMP-1 cells) | Max. Effect (% GI) (Mino cells) | Max. Effect (% GI) (JVM-13 cells) | Max. Effect (% GI) (Rec-1 cells) | further results
CC#CC(=O)N1CC[C@@H](n2c(=O)n(-c3ccc(Oc4ccccc4)cc3)c3c(N)ncnc32)C1 [Compound B, 6-amino-9-[(3R)-1-(2-butynoyl)-3-pyrrolidinyl]-7-(4-phenoxyphenyl)-7,9-dihydro-8H-purin-8-one] | < 26 | inhibited the growth | 37 | 45 | 11 | 91 | 22 | 9 | 25 | 14 | 35 | 15 | 111 | EC50 (Pfeiffer cells; [1]): > 10000 nM; Compound B EC50 shift (fold) (Pfeiffer cells; No EC50 shift observed at up to 2.5 μM): None^c; EC50 (Ri-1 cells; [1]): 5 nM; EC50 (Ri-1 cells; Idelalisib 156 nM, read-out: EC50 of Compound B in Combination with Idelalisib): 2 nM; EC50 (Ri-1 cells; Idelalisib 625 nM, read-out: EC50 of Compound B in Combination with Idelalisib): 2 nM; Compound B EC50 shift (fold) (Ri-1 cells; Ri-1, single agent EC50 / EC50 at maximum dose of Idelalisib): 2.5 fold
CCC(Nc1ncnc2[nH]cnc12)c1nc2cccc(F)c2c(=O)n1-c1ccccc1 (stereo not drawn) [Idelalisib, 2-(1-((9H-Purin-6-yl)amino)propyl)-5-fluoro-3-phenylquinazolin-4(3H)-one] | < 210 | inhibited the growth | 73 | 48 | 11 | 146 | 72 | 29 | 113 | 69 | 34 | 92 | 163 | EC50 (Pfeiffer cells; [3]): 174 nM; Idelalisib EC50 shift (fold) (Pfeiffer cells; single agent EC50 / EC50 at maximum dose of Compound B): 1 fold; EC50 (Ri-1 cells; Compound B 0 nM, read-out: EC50 of Idelalisib when Combined with Compound B): 442 nM; EC50 (Ri-1 cells; Compound B 5 nM, read-out: EC50 of Idelalisib when Combined with Compound B): 372 nM; EC50 (Ri-1 cells; Compound B 15 nM, read-out: EC50 of Idelalisib when Combined with Compound B): 372 nM; EC50 (Ri-1 cells; [3]): 372 nM; Idelalisib EC50 shift (fold) (Ri-1 cells; Ri-1, single agent EC50 / EC50 at maximum dose of Compound B): 1.2 fold
